Earlier results as cited in patent US9155707B2, “Core-shell microspheres” (Agency for Science, Technology and Research, priority 2011, dated 2015).

Key:
[1] = reference line in FIG. 10

| SMILES | toxic limit of drug permissible in the blood plasma [1] [ng/mL] | solubility in water |
| --- | --- | --- |
| CCCCN1CCCCC1C(=O)Nc1c(C)cccc1C (stereo not drawn) [Bupivacaine, bupivacaine] | 4000 |  |
| O=c1[nH]cc(F)c(=O)[nH]1 [Fluorouracil (5-FU), Fluorouracil] |  | not in water |
| O=S1(=O)OC(c2ccc(O)c(Cl)c2)(c2ccc(O)c(Cl)c2)c2ccccc21 [chlorophenol red (CR), chlorophenol red] |  | not very soluble in water |
